Assay results from publication PMC2717725 (Journal of medicinal chemistry, 2008).
Counter-ions that a name gives are not always drawn.

Columns and labels:
[1] = tested on: GSK-3 -phosphorylated β-catenin; experiment: β-catenin phosphorylation at GSK-3 sites in SH-SY5Y cells; type: cell-based, human; details: 6 h, 10 μM or dose-response, 2 μM MG132
[2] = biological target: CDK1/cyclin B; experiment: CDK1/cyclin B kinase assay; type: biochemical, starfish (Marthasterias glacialis); details: read-out: CDK1 IC50, 15 μM ATP
[3] = biological target: GSK-3α/β; experiment: GSK-3α/β kinase assay; type: biochemical, porcine; details: for IC50: read-out: GSK3 IC50, GSK-3α/β, 15 μM ATP, from dose-response curves
[4] = Equilibrium water solubility; type: physicochemical
[5] = tested on: Rat-1 fibroblasts; experiment: Luminescence assay of circadian rhythmicity, PPer2::Fluc reporter; type: cell-based; details: 10 μM, Rat-1 PPer2::Fluc, monitored 4 days
[6] = tested on: Rat-1 fibroblasts; details: lithium 10-20 mM, mammalian cells; cited from earlier work

SMILES: CN1C(=O)C(=C2Nc3ccccc3C2=NO)c2ccc(Br)cc21 [1-methyl-6BIO, reference compound]
- inhibition of β-catenin phosphorylation at GSK-3 specific sites [1]: ineffective

SMILES: O=C1Nc2cc(Br)ccc2/C1=C1/Nc2ccccc2/C1=N\OCCBr [Compound 1, (2′Z-3′E)-6-Bromoindirubin-3′-[O-(2-bromoethyl)-oxime]]
- IC50 [2]: > 10 µM

SMILES: O=C1Nc2cc(Br)ccc2/C1=C1/Nc2ccccc2/C1=N\OCCO [Compound 2, (2′Z-3′E)-6-Bromoindirubin-3′-[O-(2-hydroxyethyl)-oxime]]
- IC50 [3]: 0.003 µM
- IC50 [2]: > 10 µM

SMILES: O=C1Nc2cc(Br)ccc2/C1=C1/Nc2ccccc2/C1=N\OCC(O)CO (stereo not drawn) [Compound 3, (2′Z-3′E)-6-Bromoindirubin-3′-[O-(2,3-dihydroxypropyl)-oxime]]
- inhibition of β-catenin phosphorylation at GSK-3 specific sites [1]: most efficient
- decrease of activity/affinity on GSK-3 compared to 6BIO ([3]; relative to 6BIO): 6 fold
- IC50 [2]: 0.11 µM
- solubility change versus 6BIO (in words) ([4]; water): mediocre improvement of solubility

SMILES: CCN(CC)C(=O)O/N=C1/C(=C2/C(=O)Nc3cc(Br)ccc32)Nc2ccccc21 [Compound 4, (2′Z-3′E)-6-Bromoindirubin-3′-[O-(N,N-diethylcarbamyl)-oxime]]
- IC50 [2]: > 10 µM

SMILES: CN(C)CCO/N=C1/C(=C2/C(=O)Nc3cc(Br)ccc32)Nc2ccccc21 [Compound 5, (2′Z-3′E)-6-Bromoindirubin-3′-[O-(2-dimethylaminoethyl)-oxime]]
- inhibition of β-catenin phosphorylation at GSK-3 specific sites [1]: most efficient

SMILES: O=C1Nc2cc(Br)ccc2/C1=C1/Nc2ccccc2/C1=N\OCCN1CCCC1 [Compound 7, (2′Z-3′E)-6-Bromoindirubin-3′-[O-(2-pyrrolidin-1-ylethyl)oxime]]
- IC50 [2]: 0.5 µM

SMILES: O=C1Nc2cc(Br)ccc2/C1=C1/Nc2ccccc2/C1=N\OCCN(CCO)CCO [Compound 9]
- inhibition of β-catenin phosphorylation at GSK-3 specific sites [1]: most efficient

SMILES: O=C1Nc2cc(Br)ccc2/C1=C1/Nc2ccccc2/C1=N\OCCN1CCNCC1 [Compound 11, (2′Z-3′E)-6-Bromoindirubin-3′-[O-(2-piperazine-1-ylethyl)oxime]]
- inhibition of β-catenin phosphorylation at GSK-3 specific sites [1]: most efficient

SMILES: CN1CCN(CCO/N=C2/C(=C3/C(=O)Nc4cc(Br)ccc43)Nc3ccccc32)CC1 [Compound 12, (2′Z-3′E)-6-Bromoindirubin-3′-{O-[2-(4-methyl-piperazin-1-yl)ethyl]oxime}]
- inhibition of β-catenin phosphorylation at GSK-3 specific sites [1]: most efficient
- selectivity for GSK-3 versus 6BIO ([3]; GSK-3 over CDKs, compared to 6BIO): improved selectivity of one order of magnitude

SMILES: O=C1Nc2cc(Br)ccc2/C1=C1/Nc2ccccc2/C1=N\OCCN1CCN(CCO)CC1 [Compound 13, (2′Z-3′E)-6-Bromoindirubin-3′-(O-{2-[4-(2-hydroxyethyl)piperazin-1-yl]ethyl}oxime)]
- inhibition of β-catenin phosphorylation at GSK-3 specific sites [1]: most efficient

SMILES: O=C1Nc2cc(Br)ccc2/C1=C1/Nc2ccccc2/C1=N\OCCN1CCN(CCOCCO)CC1 [Compound 15, (2′Z-3′E)-6-Bromoindirubin-3′-[O-(2-{4-[2-(2-hydroxyethoxy)-ethyl]piperazin-1-yl}ethyl)oxime]]
- effect on circadian period length [5]: gradual shortening of the period length
- IC50 [2]: 0.9 µM

SMILES: CN(C)CCO/N=C1/C(=C2/C(=O)Nc3cc(Br)ccc32)Nc2ccccc21.Cl [Compound 16, (2′Z-3′E)-6-Bromoindirubin-3′-[O-(2-dimethylaminoethyl)oxime] Hydrochloride]
- inhibition of β-catenin phosphorylation at GSK-3 specific sites [1]: most efficient

SMILES: O=C1Nc2cc(Br)ccc2/C1=C1/Nc2ccccc2/C1=N\OCCN1CCCC1 [Compound 18, (2′Z-3′E)-6-Bromoindirubin-3′-[O-(2-pyrrolidin-1-ylethyl)oxime] Hydrochloride]
- IC50 [2]: 0.45 µM

SMILES: Cl.O=C1Nc2cc(Br)ccc2/C1=C1/Nc2ccccc2/C1=N\OCCN(CCO)CCO [Compound 20]
- inhibition of β-catenin phosphorylation at GSK-3 specific sites [1]: most efficient

SMILES: CN(CCON=C1C(=C2C(=O)Nc3cc(Br)ccc32)Nc2ccccc21)CC(O)CO.Cl (stereo not drawn) [Compound 21, (2Z-3′E)-6-Bromoindirubin-3′-(O-{2-[N-methyl, N-(2,3-dihydroxypropyl)amino]ethyl}oxime] Hydrochloride]
- IC50 [3]: 0.023 µM
- IC50 [2]: 0.15 µM
- solubility ([4]; double distilled water): 1450 µg/mL

SMILES: Cl.Cl.O=C1Nc2cc(Br)ccc2/C1=C1/Nc2ccccc2/C1=N\OCCN1CCNCC1 [Compound 22, (2′Z-3′E)-6-Bromoindirubin-3′-[O-(2-piperazine-1-ylethyl)oxime] Dihydrochloride]
- inhibition of β-catenin phosphorylation at GSK-3 specific sites [1]: most efficient

SMILES: CN1CCN(CCO/N=C2/C(=C3/C(=O)Nc4cc(Br)ccc43)Nc3ccccc32)CC1.Cl.Cl [Compound 23, (2′Z-3′E)-6-Bromoindirubin-3′-{O-[2-(4-methylpiperazin-1-yl)ethyl]oxime} Dihydrochloride]
- inhibition of β-catenin phosphorylation at GSK-3 specific sites [1]: most efficient

SMILES: Cl.Cl.O=C1Nc2cc(Br)ccc2/C1=C1/Nc2ccccc2/C1=N\OCCN1CCN(CCO)CC1 [Compound 24, (2′Z-3E)-6-Bromoindirubin-3′-(O-{2-[4-(2-hydroxyethyl)piperazin-1-yl]ethyl}oxime) Dihydrochloride]
- inhibition of β-catenin phosphorylation at GSK-3 specific sites [1]: most efficient

SMILES: COCCN1CCN(CCO/N=C2/C(=C3/C(=O)Nc4cc(Br)ccc43)Nc3ccccc32)CC1 [Compound 25, (2′Z-3E)-6-Bromoindirubin-3′-(O-{2-[4-(2-methoxyethyl)piperazin-1-yl]ethyl}oxime) Dihydrochloride]
- IC50 [2]: 1 µM

SMILES: O=C1Nc2cc(Br)ccc2/C1=C1/Nc2ccccc2/C1=N\OCCN1CCN(CCOCCO)CC1 [Compound 26, (2′Z-3′E)-6-Bromoindirubin-3′-[O-(2-{4-[2-(2-hydroxyethoxy)-ethyl]piperazin-1-yl}ethyl)oxime] Dihydrochloride]
- IC50 [2]: 0.5 µM

SMILES: [Li] [Lithium]
- effect on circadian period [6]: lengthens the period
